Measured values reported in patent US7902369B2, “Diaryl-substituted five-membered heterocycle derivative” (Banyu Pharmaceutical Co., Ltd., priority 2004, dated 2011).
pIC50: −log10 of the molar value.

Key:
[1] = target: T1, human metabotropic glutamate receptor 1a (mGluR1a) (Homo sapiens, UniProt Q13255); assay: mGluR1 inhibiting effect: intracellular calcium concentration (FLIPR) in mGluR1a-expressing CHO cells; type: cell-based; settings: suppression of calcium increase by 10 μM glutamic acid, test compound added 5 min before agonist
T1 construct: expressed in transfected cells
Experimental: MGlu1 inhibiting effect was measured by using the compound of the present invention.
With the use of Lipofectamine (Gibco BRL), cDNA of human metabotropic glutamate receptor 1a (mGluR1a) were transfected to CHO cells, to obtain cells expressing mGluR1a in a stable manner. CHO cells which expressed mGluR1a were cultured in DMEM medium containing 10% dialysis fetal bovine serum, 1% proline, 100 units/ml of penicillin, 0.1 mg of streptomycin sulfate and […] glutamine.
4 μM of Fluo-3 was incubated to mGluR1a-expressing CHO cells plated with 50000 cells per 1 well of 96-well black plate (Packard, Viewplate) the day before the measurement, in a CO2 incubator for 1 hour. The cells were washed 4 times with HBSS solution containing 20 mM HEPES and 25 mM probenecid, and the intracellular calcium concentration was measured with the use of Fluorescence Imaging Plate Reader (FLIPR; Mollecular Device). The test compounds and glutamic acid were adjusted with HBSS solution containing 20 mM HEPES and 2.5 mM Probenecid. The test compounds were added 5 min before agonist stimulation, and 10 μM of glutamic acid was used as agonist.
The calcium increased with 10 μM of glutamic acid was suppressed dose-dependently.

rats = assay: Suppression of the reduction of prepulse inhibition (PPI) by methamphetamine; type: in vivo; settings: orally 30 min before 3 mg/kg methamphetamine; rat startle reaction, 120 dB pulse with prepulse
Experimental: Systems tested for prepulse inhibition which can detect specifically antipsychotic effect were also investigated. By using startle reflex measuring device (San Diego Instruments) which can dectect movement of rats, startle reaction to 120 dB-sound stimulation (pulse stimulation) combined with 63, 66 and 72 dB-sound stimulation prior to pulse stimulation (prepulse) was measured in the presence of 60 dB-background sound. The compounds of the present invention or appropriate solvents were administered to rats, and normal saline solution or 3 mg/kg of methamphetamine was administered 30 min later, to measure startle reation. Startle reactions to pulse stimulation and to stimulation with prepulse were named A and B respectively, and the prepulse inhibition (herein referred to as PPI) level was calculated with the following formula. Calculating formula of PPI:PPI(%)=100×(A−B)/A
In contrast to startle reaction toward pulse stimulation, in the presence of preminary prepulse of 72 dB, startle reaction decreased by about 50% (prepulse inhibition). When pre-treating with methamphemine, strate reaction decreased only by about 20%, and decrease of prepulse inhibition was observed. Moreover, by administrating orally the compounds having mGluR1 antagonist effect 30 min before methamphetamine administration to the present models, decrease of prepulse inhibition by methamphetamine had tendance to recover.

male ICR(CD-1) mouse = assay: Suppression of mouse spontaneous movement level increased by methamphetamine; type: in vivo; settings: po, 1 h, 3 mg/kg orally 30 min before 2 mg/kg methamphetamine, movement level during 60 min
Experimental: With the use of male ICR(CD-1) mouse (20-40 g), movement level was measured with the use of movement level-measuring device detecting animal migration by infrared radiation sensor (Neuroscience). Compounds or appropriate solvents were administered to mice, and after administrating normal saline solution or 2 mg/kg of methamphetamine 30 min later, the movement level during 60 min from after the administration was measured. By making the difference between the movement level of the methamphetamine-administered group and that of the solvents-administered group during measuring period as 100%, the movement level of test compound-administered group was shown by inhibition % for estimation.

T1 sequence (Q13255 19-1194): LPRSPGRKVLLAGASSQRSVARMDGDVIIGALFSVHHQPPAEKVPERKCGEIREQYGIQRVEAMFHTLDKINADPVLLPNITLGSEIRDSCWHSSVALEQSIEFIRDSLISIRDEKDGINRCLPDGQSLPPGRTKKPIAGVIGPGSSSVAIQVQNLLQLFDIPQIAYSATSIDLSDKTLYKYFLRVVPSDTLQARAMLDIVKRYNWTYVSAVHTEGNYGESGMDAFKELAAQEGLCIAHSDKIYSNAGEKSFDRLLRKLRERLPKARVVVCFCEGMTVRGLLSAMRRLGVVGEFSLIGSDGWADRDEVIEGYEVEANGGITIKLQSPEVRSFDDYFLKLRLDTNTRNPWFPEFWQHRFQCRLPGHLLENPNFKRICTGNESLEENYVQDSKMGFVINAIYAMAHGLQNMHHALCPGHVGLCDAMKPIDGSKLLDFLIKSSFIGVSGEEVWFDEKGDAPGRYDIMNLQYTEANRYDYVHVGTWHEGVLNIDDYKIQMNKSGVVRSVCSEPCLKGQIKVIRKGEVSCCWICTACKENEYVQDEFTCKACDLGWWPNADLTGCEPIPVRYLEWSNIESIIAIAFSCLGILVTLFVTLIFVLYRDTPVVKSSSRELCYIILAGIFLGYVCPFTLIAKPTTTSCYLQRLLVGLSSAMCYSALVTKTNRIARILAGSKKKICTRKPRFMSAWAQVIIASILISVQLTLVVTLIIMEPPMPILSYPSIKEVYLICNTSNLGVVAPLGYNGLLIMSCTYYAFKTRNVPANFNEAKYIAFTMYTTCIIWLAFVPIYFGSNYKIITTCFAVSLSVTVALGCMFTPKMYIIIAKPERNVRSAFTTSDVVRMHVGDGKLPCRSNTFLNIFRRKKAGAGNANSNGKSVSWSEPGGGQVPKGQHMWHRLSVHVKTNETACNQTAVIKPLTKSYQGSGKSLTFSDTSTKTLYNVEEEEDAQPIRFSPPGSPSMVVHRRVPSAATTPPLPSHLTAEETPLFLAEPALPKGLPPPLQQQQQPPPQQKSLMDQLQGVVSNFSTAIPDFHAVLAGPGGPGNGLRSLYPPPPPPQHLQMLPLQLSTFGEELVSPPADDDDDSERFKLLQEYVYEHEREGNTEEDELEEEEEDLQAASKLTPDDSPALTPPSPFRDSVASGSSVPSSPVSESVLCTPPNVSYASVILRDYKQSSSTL

Structure (SMILES)	pIC50 [1]	Inhibition effect to PPI disorder (rats)	inhibition in vivo at 3 mg/kg (male ICR(CD-1) mouse) [%]
Cc1c(-c2ccc3c(c2)CC2(CC2)C3=O)nnn1-c1cccnc1F [Example 34, 1-(2-fluoropyridine-3-yl)-5-methyl-4-(1-oxoindane-2-spiro-1′-cyclopropyl-5-yl)-1H-[1,2,3]triazole]	8.64	yes	> 50
Cc1c(-c2ccc3c(c2)CN(C(C)C)C3=O)nnn1-c1cccnc1F [Example 36, 4-(2-isopropyl-1-oxo-isoindoline-5-yl)-1-(2-fluoropyridine-3-yl)-5-methyl-1H-[1,2,3]triazole]	8.19	yes	> 50
Cc1c(-c2ccc3c(c2)CN(C2CC2)C3=O)nnn1-c1cccnc1F [Example 49, 4-(2-cyclopropyl-1-oxo-isoindoline-5-yl)-1-(2-fluoropyridine-3-yl)-5-methyl-1H-[1,2,3]triazole]	8.49	yes	> 50
CCCN1Cc2cc(-c3nnn(-c4cccnc4F)c3C)ccc2C1=O [Example 85, 1-(2-fluoropyridine-3-yl)-5-methyl-4-(2-propyl-1-oxo-isoindoline-5-yl)-1H-[1,2,3]triazole]	8.36	yes	> 50
Cc1c(-c2ccc3c(c2)CN(C2CC2)C3=O)nnn1-c1ccccc1F [Example 87, 4-(2-cyclopropyl-1-oxo-isoindoline-5-yl)-1-(2-fluorobenzene-3-yl)-5-methyl-1H-[1,2,3]triazole]	8.37	yes	> 50

Now from value to compound, other results behind:

pIC50 [1]	Structure (SMILES)	Inhibition effect to PPI disorder (rats)	inhibition in vivo at 3 mg/kg (male ICR(CD-1) mouse) [%]
8.37	Cc1c(-c2ccc3c(c2)CN(C(C)C)C3=O)nnn1-c1ccc(F)cc1F [Example 119, 4-(2-isopropyl-1-oxo-isoindoline-5-yl)-1-(2,4-difluorophenyl)-5-methyl-1H-[1,2,3]triazole]	yes	> 50
8.60	Cc1c(-c2ccc3c(c2)CN(CC(F)F)C3=O)nnn1-c1ccc(F)cc1 [Example 151, 4-(2-(2,2-difluoroethyl)-1-oxo-isoindoline-5-yl)-1-(4-fluorophenyl)-5-methyl-1H-[1,2,3]triazole]	yes	> 50
7.74	Cc1c(-c2ccc3c(c2)CN(CC(C)(C)O)C3=O)nnn1-c1ccc(F)cc1 [Example 181, 4-(2-(2-hydroxy-2-methyl-propyl)-1-oxo-isoindoline-5-yl)-1-(4-fluorophenyl)-5-methyl-1H-[1,2,3]triazole]	yes	> 50
8.47	Cc1c(-c2ccc3c(=O)n(CC(C)(C)O)ccc3c2)nnn1-c1ccc(F)cc1 [Example 204, 4-(2-(2-hydroxy-2-methyl-propyl)-1-oxo-isoquinoline-6-yl)-1-(4-fluorophenyl)-5-methyl-1H-[1,2,3]triazole]	yes	> 50
8.62	Cc1c(-c2ccc3nc(CC(C)(C)O)ccc3c2)nnn1-c1ccc(F)cc1 [Example 227]	yes	> 50
